{"source": "patent US20220408724A1", "about": "“METHOD FOR CONTROLLING METABOLISM OF BRANCHED FATTY ACID” (KAO CORPORATION, priority 2019, published 2022)", "assay_type_in_all_cases": "cell-based", "key": {"[1]": {"tested_on": "Escherichia coli (NBRC3972)", "test": "Measurement of viable bacterial count on fabric", "description": "After culture on fabric prepared in the same manner as in the above (1), 9 mL of an LP diluent (manufactured by NIHON PHARMACEUTICAL CO., LTD.) was added, and the extraction of the bacteria was carried out under ultrasound for 10 minutes. The extraction liquid was poured and mixed to an SCD-LP agar medium (NIHON PHARMACEUTICAL CO., LTD.), and culture was thereafter carried out at 37° C.; for a day. The number of colonies obtained on each piece of the fabric was counted, and a common logarithm value thereof was measured as the viable bacterial count. […] In addition, the […], the more the viable bacterial count of the microorganism is maintained.\nThe metabolism of 14-methylhexadecanoic acid by bacteria of the genus Escherichia (Escherichia coli) was tested in the same manner as in example 1.\nIn this example, Escherichia coli (NBRC3972) was used as a microorganism.\nFurther, in this example, a bacterial suspension of 10^6 (CFU/ml) prepared by using an NB liquid medium diluted to 1/10 with ion exchange water was used as a bacterial suspension.\n(§1) Note that, in this example, C12OH (1-dodecanol) was used as the metabolism controlling agent."}, "Staphylococcus aureus": {"tested_on": "Staphylococcus aureus", "test": "Suppression of metabolite 4-methylhexanoic acid from 14-methylhexadecanoic acid", "description": "After culture on fabric prepared in the same manner as in the above (1), 3 ml of methanol was added, and extraction was carried out under ultrasonic irradiation for 30 minutes (20° C.). The extraction liquid was mixed with (a 1000 ppm methanol solution of) an ADAM reagent of Funakoshi Co., Ltd. at 1:1 (volume ratio) and left overnight under room temperature and dark place conditions. After that, 4-methyl-3-hexenoic acid as a metabolite from 14-methylhexadecanoic acid was quantified by HPLC. The quantification conditions are as follows.\nThe production amount of 4-methyl-3-hexenoic acid after culture on the fabric to which each metabolism controlling agent was added was quantified, and the ratio of the production amount to that of 4-methyl-3-hexenoic acid in the case of adding no metabolism controlling agent (control) was calculated as a metabolite suppression rate (%). The higher a numerical value thereof is, the more the metabolism is suppressed. Note that the metabolite suppression rate was determined by the following formula:\nMetabolite suppression rate(%)=100×[(D−C)/D] • C: production amount of metabolite of example or comparative example (μg/fabric g) • D: production amount of metabolite of control (μg/fabric g)\nThe metabolism of 14-methylhexadecanoic acid by bacteria of the genus Staphylococcus (Staphylococcus aureus) was tested in the same manner as in example 1.\nIn this example, Staphylococcus aureus (strain isolated from clothing) was used as a microorganism.\nFurther, in this example, a bacterial suspension of 10^7 (CFU/ml) prepared by using an NB liquid medium diluted to 1/10 with ion exchange water was used as a bacterial suspension.\nFurther, in this example, 4-methylhexanoic acid was quantified as a metabolite from 14-methylhexadecanoic acid, and the metabolite suppression rate was determined in the same manner as in example 1.\nas §1"}, "Rhodotorula mucilaginosa": {"tested_on": "Rhodotorula mucilaginosa", "test": "Suppression of metabolite 4-methylhexanoic acid from 14-methylhexadecanoic acid", "description": "The extraction liquid was mixed with (a 1000 ppm methanol solution of) an ADAM reagent of Funakoshi Co., Ltd. at 1:1 (volume ratio) and left overnight under room temperature and dark place conditions. […] The quantification conditions are as follows. […] The higher a numerical value thereof is, the more the metabolism is suppressed. Note that the metabolite suppression rate was determined by the following formula: […] In this example, Rhodotorula mucilaginosa (strain isolated from clothing) was used as a microorganism. Further, in this example, the bacteria were precultured under conditions of a PDA agar medium (Difco), 30° C.; and 48 hours. Further, in this example, a bacterial suspension of 10^7 (CFU/ml) prepared by using a PDB liquid medium (Difco) diluted to 1/10 with ion exchange water was used as a bacterial suspension."}}, "note": "“And” between values parts separate entries of the source, which are not always exact repeats. Equal entries are not always repeated."}
{"smiles": "CCCCCCCCCCCCO", "note": "[Example C12OH, 1-dodecanol]", "values": [{"measurement": "Bacterial count (Log (cfu/fabric cm^2))", "setting": "[1]; agent 500 μg/fabric g", "value": "6.3 Log (cfu/fabric cm^2)"}, {"measurement": "Bacterial count (Log (cfu/fabric cm^2))", "setting": "[1]; agent 1000 μg/fabric g", "value": "6.3 Log (cfu/fabric cm^2) and 6.4 Log (cfu/fabric cm^2)"}, {"measurement": "Bacterial count (Log (cfu/fabric cm^2))", "setting": "[1]; agent 2000 μg/fabric g", "value": "6.3 Log (cfu/fabric cm^2)"}, {"measurement": "Bacterial count (Log (cfu/fabric cm^2))", "setting": "[1]; agent 3000 μg/fabric g", "value": "6.3 Log (cfu/fabric cm^2)"}, {"measurement": "Metabolite suppression rate (%)", "setting": "Staphylococcus aureus; agent 100 μg/fabric g", "value": 10.00, "unit": "%"}, {"measurement": "Metabolite suppression rate (%)", "setting": "Staphylococcus aureus; agent 250 μg/fabric g", "value": "74% and 64.10%"}, {"measurement": "Metabolite suppression rate (%)", "setting": "Staphylococcus aureus; agent 500 μg/fabric g", "value": 93.20, "unit": "%"}, {"measurement": "Metabolite suppression rate (%)", "setting": "Rhodotorula mucilaginosa; agent 250 μg/fabric g", "value": "62% and 72.50%"}, {"measurement": "Metabolite suppression rate (%)", "setting": "Rhodotorula mucilaginosa; agent 500 μg/fabric g", "value": 65.80, "unit": "%"}, {"measurement": "Metabolite suppression rate (%)", "setting": "Rhodotorula mucilaginosa; agent 1000 μg/fabric g", "value": 82.20, "unit": "%"}]}
